Assay [1] concerns the target T1, Thyroid hormone receptor beta (Homo sapiens, UniProt P10828).
T1 sequence (P10828 whole entry): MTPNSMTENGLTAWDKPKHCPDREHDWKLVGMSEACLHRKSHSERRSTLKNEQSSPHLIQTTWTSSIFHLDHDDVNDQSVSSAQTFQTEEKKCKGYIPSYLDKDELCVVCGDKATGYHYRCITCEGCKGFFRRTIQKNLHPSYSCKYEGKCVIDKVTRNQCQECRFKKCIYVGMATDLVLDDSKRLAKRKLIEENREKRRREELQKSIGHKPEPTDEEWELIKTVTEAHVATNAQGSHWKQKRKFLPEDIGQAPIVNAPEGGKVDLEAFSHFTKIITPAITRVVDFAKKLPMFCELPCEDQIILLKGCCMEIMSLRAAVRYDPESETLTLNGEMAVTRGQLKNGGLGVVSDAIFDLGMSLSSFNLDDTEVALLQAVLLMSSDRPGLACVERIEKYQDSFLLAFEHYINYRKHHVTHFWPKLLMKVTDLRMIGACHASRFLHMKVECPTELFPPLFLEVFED
The assay is described as follows: Binding affinity to human thyroid hormone receptor beta 1.

The target of assay [2] is T2, Thyroid hormone receptor alpha (Homo sapiens, UniProt P10827).
T2 sequence (P10827 whole entry): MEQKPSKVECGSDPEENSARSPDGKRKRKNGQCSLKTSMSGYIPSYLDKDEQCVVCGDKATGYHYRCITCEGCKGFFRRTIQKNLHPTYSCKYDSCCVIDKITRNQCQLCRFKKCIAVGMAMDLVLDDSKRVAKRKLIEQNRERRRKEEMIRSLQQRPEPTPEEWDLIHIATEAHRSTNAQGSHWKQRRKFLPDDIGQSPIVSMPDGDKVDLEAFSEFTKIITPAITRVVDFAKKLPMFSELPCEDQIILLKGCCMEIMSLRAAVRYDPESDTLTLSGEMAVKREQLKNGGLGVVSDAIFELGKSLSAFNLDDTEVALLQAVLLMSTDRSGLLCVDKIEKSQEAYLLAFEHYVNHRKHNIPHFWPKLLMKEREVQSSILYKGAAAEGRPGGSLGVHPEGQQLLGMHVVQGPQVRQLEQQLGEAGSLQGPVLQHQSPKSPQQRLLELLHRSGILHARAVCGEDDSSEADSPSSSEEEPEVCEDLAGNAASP
Kind of assay: Binding affinity to human thyroid hormone receptor alpha 1.

Assay [3] deals with Thyroid hormone receptor (Homo sapiens) (UniProt P10827+P10828). The assay is described as follows: Selectivity for human thyroid hormone receptor beta 1 over thyroid hormone receptor alpha 1. The class given is protein-complex assay.

Consider `CC(C)C(=O)Nc1ccc(Oc2c(Cl)cc(CC(=O)O)cc2Cl)cc1Br`, for which the IC50 (commonly the concentration that inhibits the measured activity by half) in assay [1] amounted to 18 nM; in assay [2], 630 nM. Moreover, the Ratio IC50 in assay [3] was 21.
Turning to `CCCC(CCC)C(=O)Nc1ccc(Oc2c(Cl)cc(CC(=O)O)cc2Cl)cc1Br`, the IC50 in assay [1] turned out to be 45 nM; in assay [2], 1200 nM. Also, in assay [3], the Ratio IC50 amounted to 16.
Taken in the same sequence, the figures for `CCC(=O)Nc1ccc(Oc2c(Cl)cc(CC(=O)O)cc2Cl)cc1Br` were 140 nM, 3300 nM and 14.
With `CCC(CC)C(=O)Nc1ccc(Oc2c(Cl)cc(CC(=O)O)cc2Cl)cc1Br`, the figures for the IC50 in assay [1] and in assay [2] were 16 nM and 610 nM, respectively. Moreover, in assay [3], the Ratio IC50 turned out to be 22.
For `CCC(C)C(=O)Nc1ccc(Oc2c(Cl)cc(CC(=O)O)cc2Cl)cc1Br` (stereo not drawn) the same measures were 4.3 nM, 240 nM and 33.
Taken in the same sequence, the figures for `CCCC(C)C(=O)Nc1ccc(Oc2c(Cl)cc(CC(=O)O)cc2Cl)cc1Br` (stereo not drawn) were 47 nM, 1300 nM and 16.
